In patent publication US9546129B2, “DTPA prodrugs, compositions thereof, and methods of using the same” (priority 2012, dated 2017):

Columns and labels:
[1] = Gadolinium complex stability constant by titration; format: binding; conditions: 3-5 mM in 0.1 M KCl, equimolar gadolinium chloride
Procedure: The stability constant for a complex between C2E2 and gadolinium (i.e., the C2E2-Gd complex) was determined by titration. C2E2 solutions (3-5 mM) were prepared in 0.1 M KCl. Gadolinium chloride was added in equimolar concentrations. The experiment consisted of a titration with base, followed by a titration with acid. After each addition of titrant, a 30 second equilibration time passed before pH measurement with a Seven Easy pH meter and (Ag/AgCl reference) glass electrode (Metler Tolledo). The pKa values previously determined, as described in Example 9, were used to calculate the gadolinium stability constant using […] software. The stability of the C2E2-Gd complex was log K 17.34±1.13, which lies between those of EDTA and DTPA (17.0 and 22.5, respectively).

[2] = Stability of C2E2 in plasma (Beagle); format: in vitro ADME, dog; conditions: 37° C., up to two hours
Procedure: Prior to the study, 975 μL of plasma (Rat, Beagle and Human) was preheated to 37° C. in Eppendorff tubes and the test compound (C2E2) was prepared in DI water (10 mg/mL). The C2E2 was from Lot 050 obtained using Method 2. To initiate the study, 25 μL of the C2E2 solution was added to the pre-heated plasma and briefly vortexed, to mix. At 0, 15, 30, 60 and 120 minutes a 100 μL sample of plasma was taken, an equal volume of cold acetonitrile was added and mixed to precipitate plasma proteins. Samples were centrifuged at 4° C. and 14,000×g for 10 minutes to remove precipitated proteins, the supernatant was collected and the C2E2 concentration determined by HPLC-CAD. All conditions were repeated in triplicate.
HPLC Detection Methods: C2E2 analysis was performed on a prominence HPLC (Shimadzu Corporation, Kyoto, Japan) equipped with a Corona Ultra charged […] detector (CAD) (Thermo scientific, Sunnyvale, Calif.). […]
The gradient is 0.01-34.99 min: 22% B; 35.00-44.99 min: 33% B; 45.00-60.00 min: 38% B. The flow rate is 1.0 mL/min, a Thermo Hypersil ODS column (150 mm 4.6 mm i.d. with 5.0 μm particles) will be used, injection volume will be 10 μL and column oven temperature maintained at 25° C. […] The limit of quantification is 0.35 μg/mL. […]

[3] = test system: Salmonella typhimurium tester strains TA98, TA100, TA1535, and TA1537; experiment: Bacterial Reverse Mutation Assay (Salmonella); format: cell-based
Procedure: The objective of this study was to evaluate C2E2 for its ability to induce reverse mutations at the histidine locus in Salmonella typhimurium tester strains TA98, TA100, TA1535, and TA1537, and at the tryptophan locus of Escherichia coli (E. coli) strain WP2uvrA in the presence or absence of an exogenous mammalian metabolic activation system (S9).
C2E2 was evaluated in an initial mutagenicity assay in all five tester strains at dose levels of 5.00, 16.0, 50.0, 160, 500, 1600, and 5000 μg/plate with and without S9. C2E2 was from Lot 050 obtained using Method 2. C2E2 was prepared in Cell Culture Grade Water vehicle and formed a transparent colorless solution. […] The reductions in the numbers of revertant colonies and the enhanced background lawn growth are indicative of C2E2 treatment-related toxicity. With exception to the enhanced background lawn in TA1537 without S9, all other background lawns in all strains, with and without S9, were normal indicating there was appropriate bacterial growth during treatment to express a mutagenic event. There were no relevant increases in the numbers of revertant colonies observed at any dose level with any strain in the absence or presence of S9 metabolic activation.

[4] = Body weights and clinical observations in the rat single dose decorporation study; format: in vivo, Sprague Dawley rat; conditions: for Mean body weight: in g (unit assumed)
From the text: Each rat was weighed at contamination (Day 0) and the terminal body weight (Day 7) was taken at necropsy.

CCOC(=O)CN(CCN(CCN(CC(=O)O)CC(=O)OCC)CC(=O)O)CC(=O)O [C2E2, 6,9-bis(carboxymethyl)-3-(2-ethoxy-2-oxoethyl)-11-oxo-12-oxa-3,6,9-triazatetradecan-1-oic acid]
Stability of the gadolinium complex, log K [1]: 17.34±1.13 | Metabolism in plasma (observation) [2]: minimal or not detected | Dose level with reductions in mean numbers of revertant colonies (toxicity) ([3]; TA100, TA1535, TA1537, without S9): 5000 μg/plate | Dose level with reductions in mean numbers of revertant colonies (toxicity) ([3]; TA1535, TA1537, with S9): ≥ 500 μg/plate | Mutagenicity (reverse mutations at the histidine locus) ([3]; up to 5000 μg/plate, with and without S9): negative | Mean Percentage Body Weight Change ([4]; Female, C2E2 200 mg/kg, Fasted): 0.8 ± 2.2% | Mean Percentage Body Weight Change ([4]; Female, C2E2 200 mg/kg, ad libitum): 0.0 ± 2.5% | Mean Percentage Body Weight Change ([4]; Female, C2E2 600 mg/kg, Fasted): −2.3 ± 3.3% | Mean Percentage Body Weight Change ([4]; Female, C2E2 600 mg/kg, ad libitum): 1.1 ± 1.2% | Mean Percentage Body Weight Change ([4]; Female, C2E2 1000 mg/kg, Fasted): −5.0 ± 2.9% | Mean Percentage Body Weight Change ([4]; Female, C2E2 1000 mg/kg, ad libitum): 0.7 ± 2.1% | Mean Percentage Body Weight Change ([4]; Male, C2E2 200 mg/kg, Fasted): 8.1 ± 8.4% | Mean Percentage Body Weight Change ([4]; Male, C2E2 200 mg/kg, ad libitum): 10.4 ± 11.0% | Mean Percentage Body Weight Change ([4]; Male, C2E2 600 mg/kg, Fasted): 12.6 ± 3.1% | Mean Percentage Body Weight Change ([4]; Male, C2E2 600 mg/kg, ad libitum): 10.1 ± 3.1% | Mean Percentage Body Weight Change ([4]; Male, C2E2 1000 mg/kg, Fasted): 12.0 ± 4.8% | Mean Percentage Body Weight Change ([4]; Male, C2E2 1000 mg/kg, ad libitum): 10.6 ± 0.8% | Mean body weight ([4]; female rats, C2E2 200 mg/kg, Fasted, Day 0): 245.0 ± 11.6 | Mean body weight ([4]; female rats, C2E2 200 mg/kg, Fasted, Day 7 (terminal)): 246.8 ± 9.6 | Mean body weight ([4]; female rats, C2E2 200 mg/kg, ad libitum, Day 0): 276.8 ± 17.3 | Mean body weight ([4]; female rats, C2E2 200 mg/kg, ad libitum, Day 7 (terminal)): 276.5 ± 15.1 | Mean body weight ([4]; female rats, C2E2 600 mg/kg, Fasted, Day 0): 280.5 ± 28.0 | Mean body weight ([4]; female rats, C2E2 600 mg/kg, Fasted, Day 7 (terminal)): 273.5 ± 19.2 | Mean body weight ([4]; female rats, C2E2 600 mg/kg, ad libitum, Day 0): 247.0 ± 13.8 | Mean body weight ([4]; female rats, C2E2 600 mg/kg, ad libitum, Day 7 (terminal)): 249.7 ± 14.5 | Mean body weight ([4]; female rats, C2E2 1000 mg/kg, Fasted, Day 0): 276.3 ± 17.9 | Mean body weight ([4]; female rats, C2E2 1000 mg/kg, Fasted, Day 7 (terminal)): 262.7 ± 23.8 | Mean body weight ([4]; female rats, C2E2 1000 mg/kg, ad libitum, Day 0): 232.5 ± 19.3 | Mean body weight ([4]; female rats, C2E2 1000 mg/kg, ad libitum, Day 7 (terminal)): 234.2 ± 21.4 | Clinical observations ([4]; male and female rats, 200, 600, 1000 mg/kg single oral dose, 7 days): No adverse C2E2 exposure-related clinical observations | Mean body weight ([4]; male rats, C2E2 200 mg/kg, Fasted, Day 0): 291.3 ± 12.7 | Mean body weight ([4]; male rats, C2E2 200 mg/kg, Fasted, Day 7 (terminal)): 314.2 ± 14.4 | Mean body weight ([4]; male rats, C2E2 200 mg/kg, ad libitum, Day 0): 296.3 ± 9.4 | Mean body weight ([4]; male rats, C2E2 200 mg/kg, ad libitum, Day 7 (terminal)): 326.5 ± 25.7 | Mean body weight ([4]; male rats, C2E2 600 mg/kg, Fasted, Day 0): 275.9 ± 9.7 | Mean body weight ([4]; male rats, C2E2 600 mg/kg, Fasted, Day 7 (terminal)): 310.6 ± 9.1 | Mean body weight ([4]; male rats, C2E2 600 mg/kg, ad libitum, Day 0): 292.8 ± 5.1 | Mean body weight ([4]; male rats, C2E2 600 mg/kg, ad libitum, Day 7 (terminal)): 322.2 ± 6.4 | Mean body weight ([4]; male rats, C2E2 1000 mg/kg, Fasted, Day 0): 270.3 ± 5.8 | Mean body weight ([4]; male rats, C2E2 1000 mg/kg, Fasted, Day 7 (terminal)): 302.8 ± 14.2 | Mean body weight ([4]; male rats, C2E2 1000 mg/kg, ad libitum, Day 0): 290.5 ± 6.6 | Mean body weight ([4]; male rats, C2E2 1000 mg/kg, ad libitum, Day 7 (terminal)): 321.2 ± 6.5
